Measurements reported in US20150315188A1, “COMPOUNDS AND METHODS FOR TREATMENT OF HYPERTENSION” (MEDIVATION TECHNOLOGIES, INC., priority 2012, published 2015).
“And” between values parts separate entries of the source, which are not always exact repeats. Identical values can stand only once.

Legend:
Parameters in all cases: purchased Milipore (Millipore)
[1] = target: T1, Human adrenergic α2B receptor (Homo sapiens, UniProt P18089); test: Radioligand binding, adrenergic α2B (Protocol Group B); details: Protocol Group B; for Percentage inhibition of ligand binding, Adrenergic α2B (10 nM): 10 nM compound, 0.01 µM; for Percentage inhibition of ligand binding, Adrenergic α2B (30 nM): 30 nM compound, 0.03 µM; for Percentage inhibition of ligand binding, Adrenergic α2B (0.1 μM): 0.1 μM compound
T1 sequence (P18089 1-450): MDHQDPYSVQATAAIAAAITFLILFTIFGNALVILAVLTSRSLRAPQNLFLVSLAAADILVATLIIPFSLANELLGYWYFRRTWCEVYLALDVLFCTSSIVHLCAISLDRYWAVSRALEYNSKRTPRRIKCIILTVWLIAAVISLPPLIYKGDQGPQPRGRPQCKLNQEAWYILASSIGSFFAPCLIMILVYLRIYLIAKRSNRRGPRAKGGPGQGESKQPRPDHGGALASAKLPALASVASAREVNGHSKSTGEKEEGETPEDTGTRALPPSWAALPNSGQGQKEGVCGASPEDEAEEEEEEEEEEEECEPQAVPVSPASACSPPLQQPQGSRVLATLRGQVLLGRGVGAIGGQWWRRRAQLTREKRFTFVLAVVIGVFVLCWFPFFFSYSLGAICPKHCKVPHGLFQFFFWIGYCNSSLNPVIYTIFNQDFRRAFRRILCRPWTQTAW
Method in brief: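 Recombinant human α2B receptor membranes incubated with compounds in 50 mM Tris-HCl pH 7.4, 5 mM MgCl2, 1 mM CaCl2, 0.2% BSA, 1% DMSO vehicle. Non-specific binding defined with 10 μM rauwolscine. Values are percent inhibition of specific binding or estimated Ki.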

[2] = target: T2, Human adrenergic α2A receptor (Homo sapiens, UniProt P08913); test: Radioligand binding, adrenergic α2A (Protocol Group B); details: Protocol Group B; for Percentage inhibition of ligand binding, Adrenergic α2A (0.1 μM): 0.1 μM compound; for Percentage inhibition of ligand binding, Adrenergic α2A (0.3 μM): 0.3 μM compound
T2 sequence (P08913 1-465): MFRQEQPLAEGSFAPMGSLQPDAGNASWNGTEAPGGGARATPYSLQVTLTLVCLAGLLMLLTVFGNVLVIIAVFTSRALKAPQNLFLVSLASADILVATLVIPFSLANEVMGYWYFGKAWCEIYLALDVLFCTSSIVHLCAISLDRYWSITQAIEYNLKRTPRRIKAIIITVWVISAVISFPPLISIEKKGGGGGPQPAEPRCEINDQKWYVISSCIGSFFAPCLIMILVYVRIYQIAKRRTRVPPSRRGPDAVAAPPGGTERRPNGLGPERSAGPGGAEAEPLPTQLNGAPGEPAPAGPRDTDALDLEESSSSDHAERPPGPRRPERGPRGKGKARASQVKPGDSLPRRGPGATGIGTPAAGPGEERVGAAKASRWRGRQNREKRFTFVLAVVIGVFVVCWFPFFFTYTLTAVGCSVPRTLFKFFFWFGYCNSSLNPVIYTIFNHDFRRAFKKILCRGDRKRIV
Method in brief: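 Membranes from recombinant cells expressing the receptor, in 50 mM Tris-HCl pH 7.4 with 5 mM MgCl2, 1 mM CaCl2, 0.2% BSA; compounds incubated with 2 nM [^3H]MK-912 for 60 min at 25° C. Nonspecific binding defined by 10 μM rauwolscine; filtration, counting; percent inhibition of specific binding, or estimated Ki.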

[3] = target: T3, Human adrenergic α1B receptor (Homo sapiens, UniProt P35368); test: Radioligand binding, adrenergic α1B (Protocol Group B); details: Protocol Group B
T3 sequence (P35368 1-520): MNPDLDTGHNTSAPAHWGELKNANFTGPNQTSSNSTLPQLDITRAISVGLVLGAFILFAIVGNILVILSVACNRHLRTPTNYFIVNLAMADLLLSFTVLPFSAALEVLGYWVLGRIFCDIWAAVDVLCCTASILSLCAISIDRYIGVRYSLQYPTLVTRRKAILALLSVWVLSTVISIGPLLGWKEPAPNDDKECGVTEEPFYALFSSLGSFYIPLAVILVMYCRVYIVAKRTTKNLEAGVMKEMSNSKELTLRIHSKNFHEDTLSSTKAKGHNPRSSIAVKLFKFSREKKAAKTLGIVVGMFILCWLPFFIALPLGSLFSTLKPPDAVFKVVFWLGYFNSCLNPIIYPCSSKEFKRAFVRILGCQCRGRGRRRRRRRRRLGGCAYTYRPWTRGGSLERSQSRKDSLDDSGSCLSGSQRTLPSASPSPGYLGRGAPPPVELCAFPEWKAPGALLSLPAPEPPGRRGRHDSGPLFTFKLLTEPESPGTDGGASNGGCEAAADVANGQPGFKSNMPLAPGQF
Method in brief: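 Recombinant human α1B membranes incubated with test compound and 0.3 nM [3H]prazosin, 60 min at 25 °C, in 50 mM Tris-HCl pH 7.4, 10 mM MgCl2, 1 mM EDTA; nonspecific binding with 10 μM prazosin. Filter-bound radioactivity counted; values are % inhibition of specific binding or estimated Ki.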

Row | SMILES | Percentage inhibition of ligand binding, Adrenergic α2B (10 nM) [1] | Percentage inhibition of ligand binding, Adrenergic α2B (30 nM) [1] | Percentage inhibition of ligand binding, Adrenergic α2B (0.1 μM) [1] | Percentage inhibition of ligand binding, Adrenergic α2A (0.1 μM) [2] | Percentage inhibition of ligand binding, Adrenergic α2A (0.3 μM) [2] | Percentage inhibition of ligand binding, Adrenergic α1B (0.1 μM) ([3]; 0.1 μM compound) | Percentage inhibition of ligand binding, Adrenergic α1B (0.3 μM) ([3]; 0.3 μM compound) | inhibition at 0.1 µM ([3]; 0.1 μM compound, read-out: Percentage inhibition of ligand binding, Adrenergic α1B (0.1 μM)) | inhibition at 0.3 µM ([3]; 0.3 μM compound, read-out: Percentage inhibition of ligand binding, Adrenergic α1B (0.3 μM))
1 | OC(Cn1c2c(c3cc(F)ccc31)C1CCCN1CC2)c1ccncc1 (single isomer, unassigned) [18d] | 11% | 32% and 36% | 79% | 8% | 20% | 15% | 24% |  | 
2 | Cc1cc(C)c2c(c1)c1c(n2CC(C)(O)c2cccnc2)CCN2CCCC12 (single isomer, unassigned) [44d] | −17% | −11% |  | −17% | −16% | −5% | 0% |  | 
3 | Cc1cc(Cl)c2c(c1)c1c(n2CC(C)(O)c2ccncc2)CCN2CCCC12 (single isomer, unassigned) [91c] | −16% | −4% |  | −14% | −3% | −20% | −7% |  | 
4 | Cc1ccc2c(c1)c1c(n2CC(C)(O)c2cccnc2)CC(CO)N(C)C1 (single isomer, unassigned) [15a] | 19% | 48% | 68% | 14% | 14% |  |  | 17% | 25%
5 | Cc1cc(F)cc2c3c(n(CC(C)(O)c4cccnc4)c12)CC1CCCN1C3 (single isomer, unassigned) [76c] | −3% | −3% |  | 19% | 18% | 19% | 33% |  | 
6 | Cc1ccc2c(c1)c1c(n2CC(OCC2CCC2)c2ccncc2)CCN2CCCC12 (single isomer, unassigned) [138c] |  | −9% |  | 0% |  | 4% |  |  | 
7 | Cc1cc(F)c2c(c1)c1c(n2CC(C)(O)c2ccncc2)CCN2CCCC12 (single isomer, unassigned) [81d] | −7% | 8% | 18% | 11% | 6% | 5% | 9% |  | 
8 | Cc1cc(F)cc2c3c(n(CC(C)(O)c4ccncc4)c12)CCN1CCCC31 (single isomer, unassigned) [77b] | 6% | 12% |  | 5% | 9% | −3% | 14% |  | 
9 | OC(Cn1c2c(c3cc(Cl)cc(F)c31)C1CCCN1CC2)c1ccncc1 (single isomer, unassigned) [135d] | −1% | 8% |  | 0% | 2% | −7% | 9% |  | 
